Test results from paper PMC9299836 (eLife, 2022).

Columns and labels:
mGluR2 [1] = biological target: T1, mGluR2 (Mus musculus, UniProt Q14BI2, A548F); test: Single-molecule FRET (SiMPull) of azi-CRD: population histograms and state occupancy; details: azi-CRD, 5 μM modulator, fraction of total area;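 note: Cy3/Cy5-labelled receptor from HEK293T cell lysate captured on anti-FLAG surfaces, apparent FRET efficiency computed from donor and acceptor intensities with crosstalk correction, pooled into population histograms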
T1 sequence (Q14BI2 19-872 A548F): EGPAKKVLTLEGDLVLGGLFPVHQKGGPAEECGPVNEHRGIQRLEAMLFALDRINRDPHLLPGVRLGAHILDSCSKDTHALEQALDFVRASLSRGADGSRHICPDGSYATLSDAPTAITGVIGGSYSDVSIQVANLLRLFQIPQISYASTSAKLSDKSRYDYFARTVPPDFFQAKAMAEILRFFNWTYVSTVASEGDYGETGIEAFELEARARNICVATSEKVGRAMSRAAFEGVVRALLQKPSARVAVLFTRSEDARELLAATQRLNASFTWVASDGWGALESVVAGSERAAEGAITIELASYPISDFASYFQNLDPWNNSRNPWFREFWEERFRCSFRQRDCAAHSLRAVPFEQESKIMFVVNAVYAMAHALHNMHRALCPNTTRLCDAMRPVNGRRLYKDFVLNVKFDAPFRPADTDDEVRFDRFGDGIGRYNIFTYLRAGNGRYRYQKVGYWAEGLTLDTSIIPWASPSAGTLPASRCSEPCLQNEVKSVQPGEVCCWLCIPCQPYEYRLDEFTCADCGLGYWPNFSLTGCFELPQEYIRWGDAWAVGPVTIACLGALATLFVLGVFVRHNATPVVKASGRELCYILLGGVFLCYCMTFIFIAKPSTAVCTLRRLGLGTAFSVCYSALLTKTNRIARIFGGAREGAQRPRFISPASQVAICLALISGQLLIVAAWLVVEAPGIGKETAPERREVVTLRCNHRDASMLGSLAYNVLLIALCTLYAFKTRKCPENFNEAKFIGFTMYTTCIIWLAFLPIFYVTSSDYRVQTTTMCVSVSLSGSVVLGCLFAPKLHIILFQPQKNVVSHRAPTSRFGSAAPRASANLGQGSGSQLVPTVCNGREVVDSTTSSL

mGluR2 [2] = biological target: T1, mGluR2; test: smFRET of azi-CRD: cross-correlation of donor and acceptor intensities (CRD dynamics) and HMM transition density plots;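 note: single detergent-solubilized receptors captured on antibody-coated flow cells via C-terminal FLAG-tag, imaged by smFRET, donor and acceptor intensity traces from three independent biological replicates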

Mean occupancy, state 4 (active, FRET 0.87) (mGluR2 [1]; 15 μM glutamate): 0.01952
Mean occupancy, state 1 (inactive, FRET 0.24) (mGluR2 [1]; 1000 μM glutamate): 0.00207
Mean occupancy, state 2 (intermediate 1, FRET 0.38) (mGluR2 [1]; 1000 μM glutamate): 0.5597
Mean occupancy, state 3 (intermediate 2, FRET 0.70) (mGluR2 [1]; 1000 μM glutamate): 0.331
Mean occupancy, state 4 (active, FRET 0.87) (mGluR2 [1]; 1000 μM glutamate): 0.1072
Cross Correlation, Mean (mGluR2 [2]; 0μM Glutamate + GPT/Pyruvate + 5μM MNI-137, Time 0.2 s): -0.028
Cross Correlation, Mean (mGluR2 [2]; 0μM Glutamate + GPT/Pyruvate + 5μM MNI-137, Time 0.25 s): -0.03232
Cross Correlation, Mean (mGluR2 [2]; 0μM Glutamate + GPT/Pyruvate + 5μM MNI-137, Time 0.3 s): -0.03245
Cross Correlation, Mean (mGluR2 [2]; 0μM Glutamate + GPT/Pyruvate + 5μM MNI-137, Time 0.35 s): -0.03285
Cross Correlation, Mean (mGluR2 [2]; 0μM Glutamate + GPT/Pyruvate + 5μM MNI-137, Time 0.4 s): -0.02992
Cross Correlation, Mean (mGluR2 [2]; 0μM Glutamate + GPT/Pyruvate + 5μM MNI-137, Time 0.45 s): -0.02563
Cross Correlation, Mean (mGluR2 [2]; 0μM Glutamate + GPT/Pyruvate + 5μM MNI-137, Time 0.5 s): -0.0232
Cross Correlation, Mean (mGluR2 [2]; 0μM Glutamate + GPT/Pyruvate + 5μM MNI-137, Time 0.55 s): -0.0254
Cross Correlation, Mean (mGluR2 [2]; 0μM Glutamate + GPT/Pyruvate + 5μM MNI-137, Time 0.6 s): -0.02539
Cross Correlation, Mean (mGluR2 [2]; 0μM Glutamate + GPT/Pyruvate + 5μM MNI-137, Time 0.65 s): -0.02363
Cross Correlation, Mean (mGluR2 [2]; 0μM Glutamate + GPT/Pyruvate + 5μM MNI-137, Time 0.7 s): -0.02361
Cross Correlation, Mean (mGluR2 [2]; 0μM Glutamate + GPT/Pyruvate + 5μM MNI-137, Time 0.8 s): -0.02074
Cross Correlation, Mean (mGluR2 [2]; 0μM Glutamate + GPT/Pyruvate + 5μM MNI-137, Time 0.85 s): -0.0233
Cross Correlation, Mean (mGluR2 [2]; 0μM Glutamate + GPT/Pyruvate + 5μM MNI-137, Time 0.9 s): -0.02522
Cross Correlation, Mean (mGluR2 [2]; 0μM Glutamate + GPT/Pyruvate + 5μM MNI-137, Time 0.95 s): -0.02254
Cross Correlation, Mean (mGluR2 [2]; 0μM Glutamate + GPT/Pyruvate + 5μM MNI-137, Time 1 s): -0.02263
Cross Correlation, Mean (mGluR2 [2]; 0μM Glutamate + GPT/Pyruvate + 5μM MNI-137, Time 1.05 s): -0.01654
Cross Correlation, Mean (mGluR2 [2]; 0μM Glutamate + GPT/Pyruvate + 5μM MNI-137, Time 1.1 s): -0.01694
Cross Correlation, Mean (mGluR2 [2]; 0μM Glutamate + GPT/Pyruvate + 5μM MNI-137, Time 1.15 s): -0.0245
Cross Correlation, Mean (mGluR2 [2]; 0μM Glutamate + GPT/Pyruvate + 5μM MNI-137, Time 1.2 s): -0.02011
Cross Correlation, Mean (mGluR2 [2]; 0μM Glutamate + GPT/Pyruvate + 5μM MNI-137, Time 1.25 s): -0.02479
Cross Correlation, Mean (mGluR2 [2]; 0μM Glutamate + GPT/Pyruvate + 5μM MNI-137, Time 1.3 s): -0.01941
Cross Correlation, Mean (mGluR2 [2]; 0μM Glutamate + GPT/Pyruvate + 5μM MNI-137, Time 1.35 s): -0.01897
Cross Correlation, Mean (mGluR2 [2]; 0μM Glutamate + GPT/Pyruvate + 5μM MNI-137, Time 1.4 s): -0.02381
Cross Correlation, Mean (mGluR2 [2]; 0μM Glutamate + GPT/Pyruvate + 5μM MNI-137, Time 1.45 s): -0.01493
Cross Correlation, Mean (mGluR2 [2]; 0μM Glutamate + GPT/Pyruvate + 5μM MNI-137, Time 1.5 s): -0.01697
Cross Correlation, Mean (mGluR2 [2]; 0μM Glutamate + GPT/Pyruvate + 5μM MNI-137, Time 1.6 s): -0.01709
Cross Correlation, Mean (mGluR2 [2]; 0μM Glutamate + GPT/Pyruvate + 5μM MNI-137, Time 1.65 s): -0.01348
Cross Correlation, Mean (mGluR2 [2]; 0μM Glutamate + GPT/Pyruvate + 5μM MNI-137, Time 1.7 s): -0.01427
Cross Correlation, Mean (mGluR2 [2]; 0μM Glutamate + GPT/Pyruvate + 5μM MNI-137, Time 1.75 s): -0.0161
Cross Correlation, Mean (mGluR2 [2]; 0μM Glutamate + GPT/Pyruvate + 5μM MNI-137, Time 1.8 s): -0.01106
Cross Correlation, Mean (mGluR2 [2]; 0μM Glutamate + GPT/Pyruvate + 5μM MNI-137, Time 1.85 s): -0.00832
Cross Correlation, Mean (mGluR2 [2]; 0μM Glutamate + GPT/Pyruvate + 5μM MNI-137, Time 1.9 s): -0.01466
Cross Correlation, Mean (mGluR2 [2]; 15μM Glutamate + 5μM MNI-137, Time 0.2 s): -0.09437
Cross Correlation, Mean (mGluR2 [2]; 15μM Glutamate + 5μM MNI-137, Time 0.25 s): -0.08281
Cross Correlation, Mean (mGluR2 [2]; 15μM Glutamate + 5μM MNI-137, Time 0.3 s): -0.0732
Cross Correlation, Mean (mGluR2 [2]; 15μM Glutamate + 5μM MNI-137, Time 0.35 s): -0.06697
Cross Correlation, Mean (mGluR2 [2]; 15μM Glutamate + 5μM MNI-137, Time 0.4 s): -0.05965
Cross Correlation, Mean (mGluR2 [2]; 15μM Glutamate + 5μM MNI-137, Time 0.45 s): -0.05857
Cross Correlation, Mean (mGluR2 [2]; 15μM Glutamate + 5μM MNI-137, Time 0.5 s): -0.05707
Cross Correlation, Mean (mGluR2 [2]; 15μM Glutamate + 5μM MNI-137, Time 0.55 s): -0.05428
Cross Correlation, Mean (mGluR2 [2]; 15μM Glutamate + 5μM MNI-137, Time 0.6 s): -0.04785
Cross Correlation, Mean (mGluR2 [2]; 15μM Glutamate + 5μM MNI-137, Time 0.65 s): -0.04876
Cross Correlation, Mean (mGluR2 [2]; 15μM Glutamate + 5μM MNI-137, Time 0.7 s): -0.04192
Cross Correlation, Mean (mGluR2 [2]; 15μM Glutamate + 5μM MNI-137, Time 0.75 s): -0.0438
Cross Correlation, Mean (mGluR2 [2]; 15μM Glutamate + 5μM MNI-137, Time 0.8 s): -0.04286
Cross Correlation, Mean (mGluR2 [2]; 15μM Glutamate + 5μM MNI-137, Time 0.85 s): -0.04147
Cross Correlation, Mean (mGluR2 [2]; 15μM Glutamate + 5μM MNI-137, Time 0.9 s): -0.0389
Substance: MNI-137
